Several values for one entry are separate records, joined by “and”; a condition that tells them apart may be missing. Equal entries are not always repeated. Toxic doses and inconclusive results are not listed. Rule as the data show it: active = T/C of 150% or more; inactive = T/C below 125%.
Test system: L1210 leukemia ip in BDF1 mice, survival T/C
Test: NCI In Vivo Anticancer Drug Screen. Data for tumor model L1210 Leukemia (intraperitoneal) in B6D2F1 (BDF1) mice
Conditions: endpoint: mean survival time, higher = longer survival
Procedure, shortened: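 Read-out is survival time, reported as the treated-group measurement over the vehicle-control measurement.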

[1] = dose: 100.0 mg/kg/injection, schedule: Q04DX003 (ip), vehicle: Klucel (hydroxypropylcellulose) (HPC)
[2] = dose: 200.0 mg/kg/injection, schedule: Q04DX003 (ip), vehicle: Klucel (hydroxypropylcellulose) (HPC)
[3] = dose: 400.0 mg/kg/injection, schedule: Q04DX003 (ip), vehicle: Klucel (hydroxypropylcellulose) (HPC)
[4] = dose: 100.0 mg/kg/injection, schedule: Q01DX001 (ip), vehicle: carboxymethylcellulose (CMC)
[5] = dose: 200.0 mg/kg/injection, schedule: Q01DX001 (ip), vehicle: carboxymethylcellulose (CMC)
[6] = dose: 400.0 mg/kg/injection, schedule: Q01DX001 (ip), vehicle: carboxymethylcellulose (CMC)
[7] = dose: 100.0 mg/kg/injection, schedule: Q04DX003 (ip), vehicle: saline with Tween-80
[8] = dose: 200.0 mg/kg/injection, schedule: Q04DX003 (ip), vehicle: saline with Tween-80
[9] = dose: 100.0 mg/kg/injection, schedule: Q01DX009 (ip), vehicle: saline with Tween-80
[10] = dose: 200.0 mg/kg/injection, schedule: Q01DX009 (ip), vehicle: saline with Tween-80
[11] = dose: 400.0 mg/kg/injection, schedule: Q01DX009 (ip), vehicle: saline with Tween-80
[12] = dose: 100.0 mg/kg/injection, schedule: Q04DX002 (ip), vehicle: saline
[13] = dose: 25.0 mg/kg/injection, schedule: Q01DX009 (ip), vehicle: Klucel (hydroxypropylcellulose) (HPC)
[14] = dose: 50.0 mg/kg/injection, schedule: Q01DX009 (ip), vehicle: Klucel (hydroxypropylcellulose) (HPC)
[15] = dose: 100.0 mg/kg/injection, schedule: Q01DX009 (ip), vehicle: Klucel (hydroxypropylcellulose) (HPC)
[16] = dose: 100.0 mg/kg/injection, schedule: Q01DX001 (ip), vehicle: saline
[17] = dose: 25.0 mg/kg/injection, schedule: Q01DX009 (ip), vehicle: saline
[18] = dose: 50.0 mg/kg/injection, schedule: Q01DX009 (ip), vehicle: saline

Measured: T/C

Cc1c(Cl)c(C)c(Cl)c(CCl)c1Cl
inactive: dose: 100.0 mg/kg/injection, schedule: Q01DX009 (ip), vehicle: saline sonified 100 % of control | [1] 97 % of control | dose: 200.0 mg/kg/injection, schedule: Q01DX009 (ip), vehicle: saline sonified 95 % of control | [2] 89 % of control | dose: 400.0 mg/kg/injection, schedule: Q01DX009 (ip), vehicle: saline sonified 91 % of control | [3] 92 % of control

O=C(O)/C(S)=C/c1ccc2c(c1)OCO2
inactive: [4] 100 % of control | [5] 102 % of control | [6] 102 % of control

NC(=S)c1ccc2ccc3cccnc3c2n1
inactive: dose: 50.0 mg/kg/injection, schedule: Q04DX003 (ip), vehicle: saline with Tween-80 95 % of control | [7] 104 % of control | [8] 106 % of control

Cc1cc2c3ccccc3nc(C(F)(F)F)n2n1
inactive: [9] 97 % of control | [10] 103 % of control | [11] 95 % of control

CC(C)(C)S(=O)CCO (centres undefined)
inactive: [12] 109 % of control | dose: 200.0 mg/kg/injection, schedule: Q04DX002 (ip), vehicle: saline 103 % of control | dose: 400.0 mg/kg/injection, schedule: Q04DX002 (ip), vehicle: saline 103 % of control

O=C(NC(=S)Nc1ccccc1Cl)c1ccccc1
inactive: [1] 94 % of control | [2] 96 % of control | [3] 97 % of control

CCCOC(=O)c1ccc([N+](=O)[O-])o1
inactive: dose: 100.0 mg/kg/injection, schedule: Q01DX001 (ip), vehicle: Klucel (hydroxypropylcellulose) (HPC) 95 % of control | dose: 200.0 mg/kg/injection, schedule: Q01DX001 (ip), vehicle: Klucel (hydroxypropylcellulose) (HPC) 92 % of control

O=C(CC(=O)Nc1ccc(C2=NCCCN2)cc1)Nc1ccc(C2=NCCCN2)cc1
inactive: dose: 6.25 mg/kg/injection, schedule: Q01DX Z (ip), vehicle: water 110 % of control | dose: 12.5 mg/kg/injection, schedule: Q01DX Z (ip), vehicle: water 113 % of control | dose: 25.0 mg/kg/injection, schedule: Q01DX Z (ip), vehicle: water 101 % of control | dose: 50.0 mg/kg/injection, schedule: Q01DX Z (ip), vehicle: water 104 % of control | dose: 62.5 mg/kg/injection, schedule: Q01DX Z (ip), vehicle: water 96 % of control | dose: 125.0 mg/kg/injection, schedule: Q01DX Z (ip), vehicle: water 102 % of control | dose: 250.0 mg/kg/injection, schedule: Q01DX Z (ip), vehicle: water 97 % of control

Clc1cc(Cl)c2c(c1)COCO2
inactive: [13] 109 % of control | [14] 104 % of control | [15] 106 % of control | [1] 97 % of control | [2] 102 % of control | [3] 111 % of control

CCOC(=O)c1ccc(NC(=S)Nc2ccccc2)cc1N(CC)CC
inactive: [15] 101 % of control | dose: 200.0 mg/kg/injection, schedule: Q01DX009 (ip), vehicle: Klucel (hydroxypropylcellulose) (HPC) 97 % of control | dose: 400.0 mg/kg/injection, schedule: Q01DX009 (ip), vehicle: Klucel (hydroxypropylcellulose) (HPC) 104 % of control

COc1cc(-c2ccccc2)c([N+](=O)[O-])cc1[N+](=O)[O-]
inactive: [4] 107 % of control | [5] 110 % of control | [6] 116 % of control

O=C(Nc1ccc(Cl)cc1C(F)(F)F)Sc1ccc(Cl)cc1
inactive: dose: 100.0 mg/kg/injection, schedule: Q01DX001 (ip), vehicle: gum acacia 103 % of control and 104 % of control | dose: 100.0 mg/kg/injection, schedule: Q01DX009 (ip), vehicle: gum acacia 92 % of control | dose: 100.0 mg/kg/injection, schedule: Q04DX002 (ip), vehicle: gum acacia 99 % of control and 88 % of control | dose: 100.0 mg/kg/injection, schedule: Q04DX003 (ip), vehicle: gum acacia 92 % of control and 87 % of control | dose: 200.0 mg/kg/injection, schedule: Q01DX001 (ip), vehicle: gum acacia 98 % of control and 103 % of control | dose: 200.0 mg/kg/injection, schedule: Q01DX009 (ip), vehicle: gum acacia 90 % of control | dose: 200.0 mg/kg/injection, schedule: Q04DX002 (ip), vehicle: gum acacia 101 % of control and 102 % of control | dose: 200.0 mg/kg/injection, schedule: Q04DX003 (ip), vehicle: gum acacia 92 % of control and 109 % of control | dose: 400.0 mg/kg/injection, schedule: Q01DX001 (ip), vehicle: gum acacia 100 % of control and 103 % of control | dose: 400.0 mg/kg/injection, schedule: Q04DX002 (ip), vehicle: gum acacia 97 % of control and 89 % of control | dose: 400.0 mg/kg/injection, schedule: Q04DX003 (ip), vehicle: gum acacia 97 % of control and 90 % of control

CC1COCC(C)N1CC(=O)NCCCN1CCN(CCCNC(=O)CN2C(C)COCC2C)CC1 (centres undefined)
inactive: dose: 44.0 mg/kg/injection, schedule: Q01DX001 (ip), vehicle: saline 98 % of control and 103 % of control | dose: 66.0 mg/kg/injection, schedule: Q01DX001 (ip), vehicle: saline 104 % of control and 108 % of control | [16] 104 % of control and 105 % of control | dose: 150.0 mg/kg/injection, schedule: Q01DX001 (ip), vehicle: saline 110 % of control and 116 % of control | dose: 200.0 mg/kg/injection, schedule: Q01DX001 (ip), vehicle: saline 113 % of control

CC(C)(O)Cc1ccc(Br)cc1
inactive: dose: 50.0 mg/kg/injection, schedule: Q01DX009 (ip), vehicle: saline with Tween-80 95 % of control | [9] 103 % of control | [10] 111 % of control

Cc1cc[n+](CCCCCCCCCO)cc1
inactive: [16] 103 % of control

O=S1(=O)/C(=C\C2CCCCC2)c2c1c(-c1ccccc1)c1ccccc1c2-c1ccccc1
inactive: dose: 50.0 mg/kg/injection, schedule: Q01DX001 (ip), vehicle: carboxymethylcellulose (CMC) 86 % of control | [5] 92 % of control | [6] 89 % of control

CCCC(=O)Nc1cc(C)ccc1N=Nc1ccc(C)cc1
inactive: dose: 100.0 mg/kg/injection, schedule: Q01DX001 (ip), vehicle: saline with Tween-80 95 % of control | [9] 97 % of control and 105 % of control | dose: 100.0 mg/kg/injection, schedule: Q04DX002 (ip), vehicle: saline with Tween-80 90 % of control and 92 % of control | [7] 100 % of control | dose: 200.0 mg/kg/injection, schedule: Q01DX001 (ip), vehicle: saline with Tween-80 103 % of control | [10] 88 % of control and 90 % of control | dose: 200.0 mg/kg/injection, schedule: Q04DX002 (ip), vehicle: saline with Tween-80 97 % of control and 92 % of control | [8] 97 % of control | dose: 400.0 mg/kg/injection, schedule: Q01DX001 (ip), vehicle: saline with Tween-80 98 % of control | [11] 97 % of control | dose: 400.0 mg/kg/injection, schedule: Q04DX002 (ip), vehicle: saline with Tween-80 97 % of control | dose: 400.0 mg/kg/injection, schedule: Q04DX003 (ip), vehicle: saline with Tween-80 97 % of control

CCOC(OCC)c1nc(N)c2cnn(C)c2n1
inactive: dose: 6.25 mg/kg/injection, schedule: Q01DX009 (ip), vehicle: saline 89 % of control | dose: 12.5 mg/kg/injection, schedule: Q01DX009 (ip), vehicle: saline 97 % of control | [17] 106 % of control and 110 % of control | [18] 94 % of control | [12] 112 % of control

C[P+](C)(Cc1ccc([N+](=O)[O-])cc1)c1ccccc1
inactive: dose: 12.0 mg/kg/injection, schedule: Q04DX003 (ip), vehicle: saline 98 % of control | [17] 105 % of control | dose: 25.0 mg/kg/injection, schedule: Q04DX003 (ip), vehicle: saline 104 % of control | [18] 109 % of control | dose: 50.0 mg/kg/injection, schedule: Q04DX003 (ip), vehicle: saline 104 % of control

S=C1NCCCS1
inactive: dose: 12.5 mg/kg/injection, schedule: Q01DX009 (ip), vehicle: Klucel (hydroxypropylcellulose) (HPC) 93 % of control | [13] 104 % of control | [14] 98 % of control | [15] 101 % of control | [1] 98 % of control | [2] 95 % of control | [3] 104 % of control

From PubChem BioAssay AID248 (DTP/NCI, 2004)
